# According to ChEMBL document CHEMBL1201862, “PubChem BioAssay data set” (2004):
# Calls of active or inactive are those of the source.
# How the values were obtained:
# [1] = inhibitors of Vif binding to APOBEC3G peptide, primary screen, biochemical, TR-FRET, GST-Vif 1-94, biotin-A3G peptide, dose response retest (AID 1117319); assay type: functional;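 further: TR-FRET signal of purified GST-Vif binding a biotinylated A3G peptide; inhibitors lower the FRET signal by blocking Vif and A3G binding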
# [2] = Vero cell cytotoxicity, dose response, cytotoxicity control for Vif-APOBEC3G degradation inhibitor project, Vero cells (AID 1117358); assay type: functional; conditions: Human immunodeficiency virus 1, Vero
# [3] = molecular target: Mitogen-activated protein kinase 10 (Homo sapiens, UniProt P53779); assay: Dose response biochemical screening assay for inhibitors of c-Jun N-Terminal Kinase 3 (JNK3). [Related pubchem assays: 746 ]
# [4] = molecular target: SWI/SNF-related matrix-associated actin-dependent regulator of chromatin subfamily A member 2 (Homo sapiens, UniProt P51531); assay: Luminescence-based cell-based high throughput dose response assay to identify activators of the function of SWI/SNF related, matrix associated, actin dependent regulator of chromatin, subfamily a, member 2 (SMARCA2, BRM).; assay type: functional
# [5] = RKO cell viability reduction, dose response, CellTiter-Glo luminescence (AID 1117322); assay type: functional
# cells = assay type: functional, cell-based; conditions: INS-1E
# [6] = HCT116 cell viability decrease, GSK3B pretreatment – CellTiter-Glo, IC50, dose response (AID 1117339); assay type: functional; conditions: HCT-116
# [7] = SNU-C1 cell viability reduction, dose response, CellTiter-Glo luminescence (AID 1117323); assay type: functional, cell-based
# [8] = inhibitors of intracellular T. cruzi replication, confirmation, NIH3T3 host cells, beta-gal luminescence (AID 2044); assay type: functional, cell-based;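 further: intracellular parasites grown in NIH/3T3 mouse fibroblasts as host cells; luminescent beta-galactosidase reporter signal from transgenic T. cruzi replicating inside host cells; inhibitors lower the luminescence signal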
# [9] = molecular target: T1, DNA repair protein RAD52 homolog (Homo sapiens, UniProt P43351); assay type: functional, biochemical
# T1 sequence (P43351 whole entry): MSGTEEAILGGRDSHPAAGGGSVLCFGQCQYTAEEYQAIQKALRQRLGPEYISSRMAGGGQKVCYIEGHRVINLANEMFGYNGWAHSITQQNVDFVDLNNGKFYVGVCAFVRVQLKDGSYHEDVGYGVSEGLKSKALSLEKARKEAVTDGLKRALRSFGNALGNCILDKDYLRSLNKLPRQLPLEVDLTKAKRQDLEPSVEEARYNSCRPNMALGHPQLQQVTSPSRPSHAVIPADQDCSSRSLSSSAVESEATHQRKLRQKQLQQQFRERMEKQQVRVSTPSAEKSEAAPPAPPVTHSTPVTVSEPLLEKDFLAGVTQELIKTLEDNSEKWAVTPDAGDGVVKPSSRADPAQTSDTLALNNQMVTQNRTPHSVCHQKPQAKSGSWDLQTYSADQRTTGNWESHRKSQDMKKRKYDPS
# [10] = Concentration-dependent survival of SW480 colon cancer line, luminescence detection with CellTiter-Glo, half-maximal inhibitory concentration (AID 1117338); assay type: functional
# [11] = Dose-response inhibition of insulin secretion in a rat insulinoma line at 5 mM glucose (AID 1117331); assay type: functional, cell-based; conditions: INS-1E
# [12] = cytotoxicity toward Colo320 cells – cell-based, CellTiter-Glo luminescence, IC50, dose response (AID 1117334); assay type: functional; conditions: COLO 320
# [13] = cytotoxicity toward HCT116 cells – cell-based, CellTiter-Glo luminescence, IC50, dose response (AID 1117332); assay type: functional; conditions: HCT-116
# [14] = Counterscreen for activators of the function of SWI/SNF related, matrix associated, actin dependent regulator of chromatin, subfamily a, member 2 (SMARCA2, BRM): Luminescence-based cell-based high throughput dose response assay to identify non-selective compounds using the VP16 reporter assay.; assay type: functional
# [15] = HepG2 cell cytotoxicity, dose response, cytotoxicity control, ATP luminescence, cherry-pick, activator set 2 (AID 1053143); assay type: functional, cell-based
# [16] = cytotoxicity toward HT-29 cells – cell-based, CellTiter-Glo luminescence, IC50, dose response (AID 1117330); assay type: functional
# [17] = cytotoxicity toward NIH3T3 fibroblasts, dose response, counter-screen, cell-based, ATP luminescence, mouse fibroblasts (AID 2010); assay type: functional;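 further: cells exposed to compound for about 90 hours before reading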
# [18] = CellTiter-Glo luminescent dose response of DLD-1 viability loss (AID 1117352); assay type: functional
# ELAV-like protein 1 = ELAV-like protein 1 (Homo sapiens, UniProt Q15717); assay: Identify HuR specific inhibitors.; assay type: functional
# Protein Tat = Protein Tat (Human immunodeficiency virus type 1 group M subtype B (isolate HXB2)(HIV-1), UniProt P04608); assay type: functional;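 further: tat binding to TAR RNA read out by fluorescence polarization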
# Caspase-6 = molecular target: T2, Caspase-6 (Homo sapiens, UniProt P55212); assay: human caspase-6 inhibitors, dose response, biochemical, VEID-R110 fluorescence, cherry-pick (AID 720632)
# T2 sequence (P55212 whole entry): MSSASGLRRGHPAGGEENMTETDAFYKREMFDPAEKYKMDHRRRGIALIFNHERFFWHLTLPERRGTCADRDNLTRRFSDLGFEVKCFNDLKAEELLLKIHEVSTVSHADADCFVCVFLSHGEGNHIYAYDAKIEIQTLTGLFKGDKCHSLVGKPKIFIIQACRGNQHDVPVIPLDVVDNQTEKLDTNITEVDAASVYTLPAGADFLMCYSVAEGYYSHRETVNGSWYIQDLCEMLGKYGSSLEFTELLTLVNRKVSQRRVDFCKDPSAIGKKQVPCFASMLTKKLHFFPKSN
# [19] = molecular target: T3, Rac GTPase-activating protein 1 (Homo sapiens, UniProt Q9H0H5); assay: MgcRacGAP GTPase-activating activity inhibitors, confirmation, biochemical, ADP Hunter fluorescence, primary and confirmatory (AID 624330); assay type: functional
# T3 sequence (Q9H0H5 whole entry): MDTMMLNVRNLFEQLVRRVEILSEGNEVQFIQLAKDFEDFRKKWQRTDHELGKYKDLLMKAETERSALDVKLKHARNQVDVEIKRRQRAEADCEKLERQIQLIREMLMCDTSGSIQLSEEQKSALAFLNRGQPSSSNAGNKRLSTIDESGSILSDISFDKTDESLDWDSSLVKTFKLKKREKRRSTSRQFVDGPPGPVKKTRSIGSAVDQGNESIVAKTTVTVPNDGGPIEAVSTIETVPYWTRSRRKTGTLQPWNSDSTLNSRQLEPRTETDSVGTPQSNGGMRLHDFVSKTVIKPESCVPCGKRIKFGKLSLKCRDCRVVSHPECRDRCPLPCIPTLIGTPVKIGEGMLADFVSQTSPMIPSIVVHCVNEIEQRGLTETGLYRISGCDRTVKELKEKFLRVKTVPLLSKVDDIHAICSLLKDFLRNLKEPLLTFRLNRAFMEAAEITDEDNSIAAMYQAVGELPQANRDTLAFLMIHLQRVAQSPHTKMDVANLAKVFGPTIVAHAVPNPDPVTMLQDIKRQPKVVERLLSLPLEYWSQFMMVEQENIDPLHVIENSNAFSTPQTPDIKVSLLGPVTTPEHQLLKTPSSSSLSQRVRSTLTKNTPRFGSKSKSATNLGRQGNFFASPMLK
# [20] = molecular target: T4, Polyadenylate-binding protein 1 (Homo sapiens, UniProt P11940); assay: PABP1 MLLE–PAM2 binding inhibitor potency, dose response, biochemical, fluorescence polarization, FITC-PAM2 peptide (AID 602259); assay type: functional; conditions: read-out: IC50_Mean
# Nonstructural protein 1 = Nonstructural protein 1 (Influenza A virus, UniProt Q194T2); assay type: functional, Influenza A virus (A/California/07/2009(H1N1))
# [21] = molecular target: Peroxisome proliferator-activated receptor gamma/Nuclear receptor coactivator 1 (Homo sapiens, UniProt P37231); assay: TR-FRET dose response biochemical High Throughput Screening assay for agonists of the steroid receptor coactivator 1 (SRC-1) recruitment by the peroxisome proliferator-activated receptor gamma (PPAR gamma): non-selective agonists. [Related pubchem assays (depositor defined):AID1300, AID1808, AID504735, AID631]; assay type: protein assay
# [22] = molecular target: Peroxisome proliferator-activated receptor gamma/Nuclear receptor coactivator 2 (Homo sapiens, UniProt P37231); assay: TR-FRET dose response biochemical High Throughput Screening assay for agonists of the steroid receptor coactivator 2 (SRC-2) recruitment by the peroxisome proliferator-activated receptor gamma (PPAR gamma): non-selective agonists. [Related pubchem assays: 1297, 1032 ]; assay type: functional
# [23] = molecular target: Peroxisome proliferator-activated receptor gamma/Nuclear receptor coactivator 3 (Homo sapiens, UniProt P37231); assay: TR-FRET dose response biochemical High Throughput Screening assay for agonists of the steroid receptor coactivator 3 (SRC-3) recruitment by the peroxisome proliferator-activated receptor gamma (PPAR gamma): non-selective agonists. [Related pubchem assays: 1301 (Confirmation screen.), 1048 (Primary screen.)]; assay type: functional
# [24] = molecular target: T4, Polyadenylate-binding protein 1; assay: PABP1 MLLE–PAM2 interaction inhibitors, dose response, miRNA deadenylation inhibitor project, biochemical, fluorescence polarization, Cy5-PAM2 peptide, secondary (AID 602260); assay type: functional; conditions: read-out: IC50_Mean
# Fibrinogen beta chain [25] = molecular target: T5, Fibrinogen beta chain (Homo sapiens, UniProt P02675); assay: Fluorescence polarization-based biochemical high throughput dose response assay to identify inhibitors that disrupt the binding of a cyclic peptide (Tn7) to the fibrin proteolytic product D-Dimer and fragment E complex [DD(E )].
# Fibrinogen beta chain [26] = molecular target: T5, Fibrinogen beta chain; assay: Fluorescence polarization-based biochemical high throughput dose response assay to identify inhibitors that disrupt the binding of a cyclic peptide (Tn6) to the fibrin proteolytic product D-Dimer and fragment E complex [DD(E )].
# [27] = HepG2 cell cytotoxicity, dose response, cytotoxicity control, cherry-picked samples (AID 1159577); assay type: functional, cell-based
# [28] = HepG2 cell cytotoxicity, dose response, cytotoxicity control, plate reader, dry powder samples (AID 1159569); assay type: functional, cell-based;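 further: inhibitor potency with signal falling toward the positive control level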
# [29] = P. falciparum Dd2 growth inhibitors, dose response, SYBR Green, dry powder samples (AID 1159566); assay type: functional, cell-based;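 further: potency for growth inhibition with lower SYBR green DNA signal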
# [30] = P. falciparum 3D7-ScDHODH growth inhibitors, dose response, SYBR Green, dry powder samples (AID 1159570); assay type: functional, cell-based;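 further: parasite growth measured after 72 hours of compound exposure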
# [31] = P. falciparum Dd2 growth inhibitors, dose response, SYBR Green, cherry-picked samples (AID 1159567); assay type: functional, cell-based
# [32] = P. falciparum ATP4 D1247Y mutant growth inhibitors, dose response, NITD609-resistant line, SYBR Green, dry powder (AID 1159571); assay type: functional, cell-based;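 further: parasites synchronized at ring stage by sorbitol before testing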
# [33] = molecular target: T6, Low molecular weight phosphotyrosine protein phosphatase (Homo sapiens, UniProt P24666); assay: LMPTP phosphatase inhibitors, dose response, biochemical, OMFP substrate, fluorescence intensity, set 2 (AID 743307); assay type: functional
# T6 sequence (P24666 whole entry): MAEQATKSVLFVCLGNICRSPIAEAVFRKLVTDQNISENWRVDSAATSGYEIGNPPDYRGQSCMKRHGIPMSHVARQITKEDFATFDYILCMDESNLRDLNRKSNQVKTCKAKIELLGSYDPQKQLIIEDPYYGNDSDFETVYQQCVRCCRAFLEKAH
# [34] = molecular target: T6, Low molecular weight phosphotyrosine protein phosphatase; assay: LMPTP phosphatase inhibitors, colorimetric pNPP readout, dose response, orthogonal assay, biochemical, absorbance, pNPP substrate, LMPTP-A isoform, set 2 (AID 743308); assay type: functional
# [35] = HepG2 cell cytotoxicity, dose response, cytotoxicity control, luminescence, dry powder, set 9 (AID 743358); assay type: functional, cell-based
# [36] = Glucagon-like peptide 1 release potency, NCI-H716 cell line, dose-response, half-maximal inhibitory concentration (AID 1117344); assay type: functional, cell-based
# [37] = half-maximal inhibitory concentration for glucagon-like peptide-1 release, STC-1 cell line, dose-response (AID 1117345); assay type: functional, cell-based
# T5 sequence (P02675 whole entry, the tested form may be a part): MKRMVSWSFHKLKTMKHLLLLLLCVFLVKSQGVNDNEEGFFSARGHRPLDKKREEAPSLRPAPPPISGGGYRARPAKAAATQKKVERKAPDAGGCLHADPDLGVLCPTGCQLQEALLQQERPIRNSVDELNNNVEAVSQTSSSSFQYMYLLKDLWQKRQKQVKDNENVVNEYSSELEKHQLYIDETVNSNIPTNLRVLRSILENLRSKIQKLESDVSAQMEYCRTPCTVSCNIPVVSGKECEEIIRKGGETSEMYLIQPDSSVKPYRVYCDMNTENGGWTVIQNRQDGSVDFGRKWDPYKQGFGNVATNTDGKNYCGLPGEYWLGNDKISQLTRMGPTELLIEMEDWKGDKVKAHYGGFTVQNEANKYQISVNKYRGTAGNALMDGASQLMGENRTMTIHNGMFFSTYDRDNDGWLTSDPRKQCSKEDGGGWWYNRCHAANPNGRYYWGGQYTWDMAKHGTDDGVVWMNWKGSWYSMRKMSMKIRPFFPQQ
# T4 sequence (P11940 whole entry): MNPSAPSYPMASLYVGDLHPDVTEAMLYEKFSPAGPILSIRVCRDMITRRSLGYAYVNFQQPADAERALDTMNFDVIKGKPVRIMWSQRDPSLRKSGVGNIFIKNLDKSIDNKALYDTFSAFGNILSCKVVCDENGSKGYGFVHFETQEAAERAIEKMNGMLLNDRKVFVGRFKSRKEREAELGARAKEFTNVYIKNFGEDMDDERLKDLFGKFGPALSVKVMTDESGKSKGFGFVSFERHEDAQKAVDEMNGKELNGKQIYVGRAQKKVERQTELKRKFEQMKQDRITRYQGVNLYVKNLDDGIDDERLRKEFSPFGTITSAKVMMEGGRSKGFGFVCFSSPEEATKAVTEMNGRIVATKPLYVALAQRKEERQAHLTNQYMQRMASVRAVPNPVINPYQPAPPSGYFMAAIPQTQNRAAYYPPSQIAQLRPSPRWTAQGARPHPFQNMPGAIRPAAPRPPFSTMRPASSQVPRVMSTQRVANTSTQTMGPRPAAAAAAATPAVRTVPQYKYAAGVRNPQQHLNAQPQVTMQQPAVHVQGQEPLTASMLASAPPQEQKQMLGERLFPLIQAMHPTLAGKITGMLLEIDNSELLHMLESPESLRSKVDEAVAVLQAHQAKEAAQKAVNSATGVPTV
# Sequence of Peroxisome proliferator-activated receptor gamma/Nuclear receptor coactivator 3 (P37231 whole entry): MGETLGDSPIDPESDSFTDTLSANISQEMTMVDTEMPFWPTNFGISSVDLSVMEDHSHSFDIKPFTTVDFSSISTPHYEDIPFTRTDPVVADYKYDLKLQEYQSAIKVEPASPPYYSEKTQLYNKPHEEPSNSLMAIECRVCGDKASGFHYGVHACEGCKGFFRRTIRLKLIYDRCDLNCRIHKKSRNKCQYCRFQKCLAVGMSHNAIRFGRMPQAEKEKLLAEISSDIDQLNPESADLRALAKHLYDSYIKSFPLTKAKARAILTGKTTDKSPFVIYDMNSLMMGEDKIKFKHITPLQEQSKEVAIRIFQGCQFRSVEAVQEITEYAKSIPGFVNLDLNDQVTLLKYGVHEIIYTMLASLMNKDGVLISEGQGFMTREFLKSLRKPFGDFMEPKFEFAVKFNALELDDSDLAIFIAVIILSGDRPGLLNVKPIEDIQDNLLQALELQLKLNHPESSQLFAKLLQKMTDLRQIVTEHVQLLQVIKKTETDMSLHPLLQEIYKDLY
# Sequence of Peroxisome proliferator-activated receptor gamma/Nuclear receptor coactivator 3 (Q9Y6Q9 whole entry, further chain): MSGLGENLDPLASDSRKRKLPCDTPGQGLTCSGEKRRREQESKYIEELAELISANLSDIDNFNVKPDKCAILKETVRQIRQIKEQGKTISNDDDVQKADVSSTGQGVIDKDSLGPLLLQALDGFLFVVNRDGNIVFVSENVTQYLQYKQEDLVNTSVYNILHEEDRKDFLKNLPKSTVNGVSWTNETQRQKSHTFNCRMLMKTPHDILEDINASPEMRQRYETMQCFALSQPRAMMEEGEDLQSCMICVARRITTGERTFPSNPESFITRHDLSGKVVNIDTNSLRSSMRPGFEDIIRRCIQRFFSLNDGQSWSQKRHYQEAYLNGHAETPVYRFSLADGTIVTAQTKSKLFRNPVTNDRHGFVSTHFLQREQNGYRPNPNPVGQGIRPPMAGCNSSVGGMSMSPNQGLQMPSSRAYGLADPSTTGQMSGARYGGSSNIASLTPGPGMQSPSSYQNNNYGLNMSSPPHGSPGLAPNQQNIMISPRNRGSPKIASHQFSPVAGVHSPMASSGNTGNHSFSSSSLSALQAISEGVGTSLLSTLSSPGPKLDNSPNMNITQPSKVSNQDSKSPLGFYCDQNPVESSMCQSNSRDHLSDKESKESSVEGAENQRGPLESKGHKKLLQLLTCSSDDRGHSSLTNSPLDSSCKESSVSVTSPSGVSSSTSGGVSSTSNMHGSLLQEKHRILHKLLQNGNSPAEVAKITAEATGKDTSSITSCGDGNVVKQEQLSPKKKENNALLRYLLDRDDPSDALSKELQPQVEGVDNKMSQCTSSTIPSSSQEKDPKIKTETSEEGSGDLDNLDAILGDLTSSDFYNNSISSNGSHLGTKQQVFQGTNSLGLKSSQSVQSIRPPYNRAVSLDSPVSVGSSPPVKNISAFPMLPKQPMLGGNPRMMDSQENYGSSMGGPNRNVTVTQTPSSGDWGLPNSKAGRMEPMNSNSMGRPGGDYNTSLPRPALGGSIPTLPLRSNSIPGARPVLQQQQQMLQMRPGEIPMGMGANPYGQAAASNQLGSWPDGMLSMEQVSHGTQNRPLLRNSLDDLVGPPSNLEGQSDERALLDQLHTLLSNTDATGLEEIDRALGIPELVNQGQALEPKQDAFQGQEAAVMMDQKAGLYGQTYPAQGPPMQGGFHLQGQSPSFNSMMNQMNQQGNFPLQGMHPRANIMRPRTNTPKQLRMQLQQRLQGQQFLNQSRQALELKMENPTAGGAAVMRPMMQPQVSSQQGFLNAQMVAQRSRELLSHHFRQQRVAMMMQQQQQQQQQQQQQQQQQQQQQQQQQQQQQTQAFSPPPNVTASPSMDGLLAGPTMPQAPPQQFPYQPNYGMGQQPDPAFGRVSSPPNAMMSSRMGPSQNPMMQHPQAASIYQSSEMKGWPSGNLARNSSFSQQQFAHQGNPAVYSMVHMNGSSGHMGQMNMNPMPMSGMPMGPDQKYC
# Sequence of Peroxisome proliferator-activated receptor gamma/Nuclear receptor coactivator 2 (P37231 whole entry): as the sequence (P37231 whole entry) above
# Sequence of Peroxisome proliferator-activated receptor gamma/Nuclear receptor coactivator 2 (Q15596 whole entry, further chain): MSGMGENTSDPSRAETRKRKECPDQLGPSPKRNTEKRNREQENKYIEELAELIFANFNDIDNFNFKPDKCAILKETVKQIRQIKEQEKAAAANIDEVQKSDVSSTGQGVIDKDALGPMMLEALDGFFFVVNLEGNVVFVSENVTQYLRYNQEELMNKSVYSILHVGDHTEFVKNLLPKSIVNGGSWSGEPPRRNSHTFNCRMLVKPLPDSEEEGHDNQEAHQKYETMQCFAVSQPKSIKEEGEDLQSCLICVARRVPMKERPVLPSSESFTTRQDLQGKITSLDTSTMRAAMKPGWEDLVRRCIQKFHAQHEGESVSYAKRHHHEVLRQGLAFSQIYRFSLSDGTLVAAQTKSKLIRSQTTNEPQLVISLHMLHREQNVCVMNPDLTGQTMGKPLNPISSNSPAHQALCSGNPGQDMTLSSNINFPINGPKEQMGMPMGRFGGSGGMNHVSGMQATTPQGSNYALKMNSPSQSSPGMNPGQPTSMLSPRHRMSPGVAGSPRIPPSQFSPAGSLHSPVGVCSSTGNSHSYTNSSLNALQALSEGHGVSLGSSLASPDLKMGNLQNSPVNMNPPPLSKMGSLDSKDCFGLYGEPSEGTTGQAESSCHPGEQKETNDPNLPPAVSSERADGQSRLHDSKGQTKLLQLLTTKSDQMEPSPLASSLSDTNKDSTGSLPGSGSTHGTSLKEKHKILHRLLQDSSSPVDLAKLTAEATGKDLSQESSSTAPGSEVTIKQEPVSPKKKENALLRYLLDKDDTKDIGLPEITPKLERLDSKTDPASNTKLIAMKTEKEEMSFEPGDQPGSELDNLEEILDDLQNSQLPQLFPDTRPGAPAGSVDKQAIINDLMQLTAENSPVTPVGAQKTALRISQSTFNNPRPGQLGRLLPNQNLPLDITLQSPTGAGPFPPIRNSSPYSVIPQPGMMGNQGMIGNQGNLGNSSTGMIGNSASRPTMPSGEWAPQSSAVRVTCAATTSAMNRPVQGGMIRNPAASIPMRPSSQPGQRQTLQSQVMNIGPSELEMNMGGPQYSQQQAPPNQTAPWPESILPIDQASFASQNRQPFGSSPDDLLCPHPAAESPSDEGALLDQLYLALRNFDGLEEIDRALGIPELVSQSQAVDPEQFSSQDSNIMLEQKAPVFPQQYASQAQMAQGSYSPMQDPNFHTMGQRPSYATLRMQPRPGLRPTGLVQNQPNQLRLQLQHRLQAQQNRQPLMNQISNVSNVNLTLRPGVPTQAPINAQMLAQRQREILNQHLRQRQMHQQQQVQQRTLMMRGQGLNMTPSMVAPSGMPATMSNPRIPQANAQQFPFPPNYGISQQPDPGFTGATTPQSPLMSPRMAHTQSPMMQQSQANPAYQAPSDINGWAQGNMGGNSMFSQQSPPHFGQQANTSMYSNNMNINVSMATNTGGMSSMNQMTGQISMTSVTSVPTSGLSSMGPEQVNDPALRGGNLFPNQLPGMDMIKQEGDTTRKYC
smiles,measurement,setting,value
CCOC(=O)c1c(NC(=O)C(C)N2CCN(C(=O)c3ccco3)CC2)sc2c1CCCC2 (stereo not given),IC50,[1],> 100 µM (active)
same,CC50,[2],21.6 µM (active)
O=C1C(c2ccncc2)=C(O)c2ccccc21,IC50,[3],6.69 µM (active)
Nc1c2ccccc2nc2ccccc12,EC50,[4],> 3.37 µM (active)
same,IC50,[5],> 6.67 µM (inactive)
same,IC50,cells,> 33.3 µM (inactive)
same,IC50,[6],3.87 µM (active)
same,IC50,[7],> 6.67 µM (inactive)
same,EC50,[8],1.16 µM (active)
same,AC50,[9],2.48 µM (active)
same,IC50,[10],> 20 µM (inactive)
same,IC50,[11],18.5 µM (inactive)
same,IC50,[12],8.81 µM (inactive)
same,IC50,[13],2.02 µM (active)
same,EC50,[14],> 91.1 µM (inactive)
same,AC50,[15],6.26 µM (active)
same,IC50,[16],> 20 µM (inactive)
same,EC50,[17],10.6 µM (active)
same,IC50,[18],> 20 µM (inactive)
Cc1ccc(Nc2ccc(N)cc2S(=O)(=O)O)cc1,IC50,ELAV-like protein 1,41 µM (active)
same,IC50,Protein Tat,49.3 µM (inconclusive)
same,AC50,Caspase-6,13.7 µM (active)
same,IC50,[19],40.2 µM (active)
Cc1cc2cc(CNS(=O)(=O)c3ccc4ccccc4c3)ccc2n1C,IC50,[20],46.5 µM (inactive)
same,IC50,Nonstructural protein 1,46.8 µM (active)
same,EC50,[21],6.2 µM (active)
same,EC50,[22],6.29 µM (active)
same,EC50,[23],14.4 µM (not active)
same,IC50,[24],> 66 µM (inactive)
same,IC50,Fibrinogen beta chain [25],> 83.3 µM (inactive)
same,IC50,Fibrinogen beta chain [26],21 µM (inactive)
Cc1ccc(-c2ccc([C@@H]3[C@H](CO)N4CCCCN(S(=O)(=O)c5cccc(C)c5)C[C@@H]34)cc2)cc1,AC50,[27],> 39 µM (inactive)
same,AC50,[28],16.4 µM (active)
same,AC50,[29],0.955 µM (active)
same,AC50,[30],1.15 µM (active)
same,AC50,[31],1.49 µM (active)
same,AC50,[32],0.87 µM (active)
c1ccc(-c2cc(NCCN3CCCC3)c3ccccc3n2)cc1,IC50,[33],5.46 µM (active)
same,IC50,[34],11.9 µM (active)
COc1cccc(NC(=O)N2CC[C@@H]3[C@@H](CO)N(C)c4ccc(-c5cccc(F)c5)cc4[C@@H]32)c1,AC50,[35],> 52 µM (inactive)
CCCCC(CC)COC(=O)CC(C(=O)OCC(CC)CCCC)S(=O)(=O)O (stereo not given) [DOCUSATE],IC50,[5],> 20 µM (inactive)
same,IC50,[6],16.6 µM (inactive)
same,IC50,[36],22.9 µM (inactive)
same,IC50,[7],> 20 µM (inactive)
same,IC50,[37],> 40 µM (inactive)
same,IC50,[10],> 20 µM (inactive)
same,IC50,[12],> 20 µM (inactive)
same,IC50,[13],> 20 µM (inactive)
same,IC50,[16],> 20 µM (inactive)
same,IC50,[18],> 20 µM (inactive)
